Measured values as given in the Kinase Knowledgebase extract (Sharma et al. 2016).

Experiments:
PIK3CA (human) = PIK3CA (human) (UniProt P42336); assay: Assessment of PIK3CA Kinase Activity
PIK3CG (human) = PIK3CG (human) (UniProt P48736); assay: Assessment of PIK3CG Kinase Activity
PIK3CG (human), sequence (P48736 whole entry, looked up): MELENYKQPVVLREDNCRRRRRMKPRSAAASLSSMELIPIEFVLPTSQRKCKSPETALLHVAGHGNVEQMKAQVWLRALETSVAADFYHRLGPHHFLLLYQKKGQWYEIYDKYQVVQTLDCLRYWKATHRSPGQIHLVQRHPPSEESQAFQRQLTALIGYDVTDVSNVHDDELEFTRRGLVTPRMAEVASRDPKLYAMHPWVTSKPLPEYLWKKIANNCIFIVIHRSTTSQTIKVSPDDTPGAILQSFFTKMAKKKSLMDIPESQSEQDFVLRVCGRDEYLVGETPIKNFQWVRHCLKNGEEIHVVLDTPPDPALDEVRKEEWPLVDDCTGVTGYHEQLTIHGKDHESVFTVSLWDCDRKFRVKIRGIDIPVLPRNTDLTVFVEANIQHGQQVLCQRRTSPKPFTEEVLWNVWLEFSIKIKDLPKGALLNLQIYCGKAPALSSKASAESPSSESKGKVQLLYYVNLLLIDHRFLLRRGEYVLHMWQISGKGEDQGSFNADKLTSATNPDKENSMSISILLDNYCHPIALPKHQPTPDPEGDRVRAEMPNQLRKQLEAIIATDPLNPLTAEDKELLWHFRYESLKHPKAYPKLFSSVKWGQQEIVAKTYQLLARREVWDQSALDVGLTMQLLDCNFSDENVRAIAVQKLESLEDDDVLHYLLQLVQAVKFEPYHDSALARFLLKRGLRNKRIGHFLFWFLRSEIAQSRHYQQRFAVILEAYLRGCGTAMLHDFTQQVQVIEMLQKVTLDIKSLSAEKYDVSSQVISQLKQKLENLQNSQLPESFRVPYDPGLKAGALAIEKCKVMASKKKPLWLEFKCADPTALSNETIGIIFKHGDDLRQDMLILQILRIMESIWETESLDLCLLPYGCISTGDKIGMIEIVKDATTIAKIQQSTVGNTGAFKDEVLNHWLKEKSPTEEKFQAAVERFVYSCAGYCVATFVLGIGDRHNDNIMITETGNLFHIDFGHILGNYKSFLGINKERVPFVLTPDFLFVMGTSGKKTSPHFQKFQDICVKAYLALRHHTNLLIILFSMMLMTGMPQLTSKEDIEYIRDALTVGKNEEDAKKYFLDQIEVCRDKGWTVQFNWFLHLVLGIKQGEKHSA

PIK3CA (human), sequence (P42336 whole entry, looked up): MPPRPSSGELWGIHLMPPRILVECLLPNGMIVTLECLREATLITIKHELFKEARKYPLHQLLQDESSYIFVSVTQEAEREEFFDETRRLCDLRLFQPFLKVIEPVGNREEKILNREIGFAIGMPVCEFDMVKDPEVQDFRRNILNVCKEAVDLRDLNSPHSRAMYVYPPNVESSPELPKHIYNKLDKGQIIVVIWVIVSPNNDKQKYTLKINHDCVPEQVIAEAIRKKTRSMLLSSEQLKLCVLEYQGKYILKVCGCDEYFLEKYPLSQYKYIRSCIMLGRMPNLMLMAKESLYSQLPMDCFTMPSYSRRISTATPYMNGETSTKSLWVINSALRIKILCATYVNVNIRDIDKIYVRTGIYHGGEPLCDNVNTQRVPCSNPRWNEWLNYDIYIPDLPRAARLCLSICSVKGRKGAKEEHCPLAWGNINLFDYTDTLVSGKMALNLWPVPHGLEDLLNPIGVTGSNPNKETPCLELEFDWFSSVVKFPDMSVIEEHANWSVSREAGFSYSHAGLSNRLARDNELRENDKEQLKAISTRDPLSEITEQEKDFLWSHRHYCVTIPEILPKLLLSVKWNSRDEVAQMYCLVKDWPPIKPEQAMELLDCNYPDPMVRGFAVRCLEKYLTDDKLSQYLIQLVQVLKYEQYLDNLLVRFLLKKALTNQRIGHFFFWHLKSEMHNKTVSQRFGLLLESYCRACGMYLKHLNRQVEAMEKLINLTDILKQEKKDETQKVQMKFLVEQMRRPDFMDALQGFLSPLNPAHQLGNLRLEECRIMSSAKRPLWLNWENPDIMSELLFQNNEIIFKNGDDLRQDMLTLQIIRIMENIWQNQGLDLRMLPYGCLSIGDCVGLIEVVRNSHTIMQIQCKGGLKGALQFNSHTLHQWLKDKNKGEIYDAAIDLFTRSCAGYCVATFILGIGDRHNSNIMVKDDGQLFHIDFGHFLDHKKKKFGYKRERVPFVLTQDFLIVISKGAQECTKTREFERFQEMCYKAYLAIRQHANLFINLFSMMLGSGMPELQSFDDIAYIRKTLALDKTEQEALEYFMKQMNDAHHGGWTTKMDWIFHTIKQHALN

SMILES	IC50 (PIK3CA (human))	IC50 (PIK3CG (human))
CN1CCc2c(nc(-c3ccc(NC(=O)Nc4ccncc4)cc3)nc2N2C3CCC2COC3)C1	2770 nM	–
COC(=O)N1CCc2c(nc(-c3ccc(NC(=O)Nc4ccncc4)cc3)nc2N2C3CCC2COC3)C1	377 nM	–
CN(C)C1CCN(C(=O)c2ccc(NC(=O)Nc3ccc(-c4nc5c(c(N6CC7CCC(C6)O7)n4)CCNC5)cc3)cc2)CC1	1120 nM	3950 nM
CNC(=O)Nc1ccc(-c2nc3c(c(N4CC5CCC(C4)O5)n2)CCN(S(=O)(=O)c2ccc(Cl)cc2)C3)cc1	–	3100 nM
CCN1CCc2c(nc(-c3ccc(NC(=O)Nc4ccccc4)cc3)nc2N2C3CCC2COC3)C1	917 nM	–
CCN1CCc2c(nc(-c3ccc(NC(=O)Nc4ccc(C(F)(F)F)cc4)cc3)nc2N2C3CCC2COC3)C1	3010 nM	–
CN1CCc2c(nc(-c3ccc(NC(=O)Nc4cccnc4)cc3)nc2N2CCOCC2)C1	111 nM	1370 nM
CN(C)C1CCN(C(=O)c2ccc(NC(=O)Nc3ccc(-c4nc5c(c(N6CC7CCC(C6)O7)n4)CCN(S(C)(=O)=O)C5)cc3)cc2)CC1	2690 nM	> 10000 nM
CCN1CCc2c(nc(-c3ccc(NC(=O)Nc4ccc(C(=O)OC)cc4)cc3)nc2N2C3CCC2COC3)C1	1280 nM	–
CNC(=O)Nc1ccc(-c2nc3c(c(N4CC5CCC(C4)O5)n2)CCN(S(=O)(=O)c2ccccc2)C3)cc1	–	205 nM
CNC(=O)Nc1ccc(-c2nc3c(c(N4CC5CCC(C4)O5)n2)CCNC3)cc1	2720 nM	> 10000 nM
CCN1CCc2c(nc(-c3ccc(NC(=O)NC4CC4)cc3)nc2N2C3CCC2COC3)C1	4850 nM	–
O=C(Nc1ccncc1)Nc1ccc(-c2nc3c(c(N4C5CCC4COC5)n2)CCN(CC(F)(F)F)C3)cc1	1710 nM	–
CNC(=O)Nc1ccc(-c2nc3c(c(N4C5CCC4COC5)n2)CN(S(C)(=O)=O)C3)cc1	4 nM	70 nM
CCN1CCc2c(nc(-c3ccc(NC(=O)Nc4ccc(N5CCC(N(C)C)CC5)cc4)cc3)nc2N2C3CCC2COC3)C1	1070 nM	–
CNC(=O)Nc1ccc(-c2nc3c(c(N4CC5CCC(C4)O5)n2)CCN(C(=O)NC(C)(C)C)C3)cc1	–	375 nM
CNC(=O)Nc1ccc(-c2nc3c(c(N4C5CCC4COC5)n2)CCN(C)C3)cc1	4410 nM	> 10000 nM
CNC(=O)Nc1ccc(-c2nc3c(c(N4CC5CCC(C4)O5)n2)CCN(C(=O)c2ccccc2F)C3)cc1	–	360 nM

SMILES	IC50 (PIK3CA (human))	IC50 (PIK3CG (human))
CN(C)C1CCN(C(=O)c2ccc(NC(=O)Nc3ccc(-c4nc5c(c(N6CCOCC6)n4)CN(S(C)(=O)=O)C5)cc3)cc2)CC1	1 nM	8 nM
O=C(Nc1ccc(-c2nc3c(c(N4CCOCC4)n2)CCNC3)cc1)Nc1cccnc1	66 nM	715 nM
CCN1CCc2c(nc(-c3ccc(NC(=O)Nc4ccc(CN(C)C)cc4)cc3)nc2N2C3CCC2COC3)C1	884 nM	–
CNC(=O)Nc1ccc(-c2nc3c(c(N4C5CCC4COC5)n2)CCNC3)cc1	3760 nM	> 10000 nM
CNC(=O)Nc1ccc(-c2nc3c(c(N4CC5CCC(C4)O5)n2)CCN(C(=O)CCC2CCCC2)C3)cc1	–	1050 nM
CNC(=O)Nc1ccc(-c2nc3c(c(N4CC5CCC(C4)O5)n2)CCN(C(=O)OCC(C)C)C3)cc1	–	350 nM
CS(=O)(=O)N1CCc2c(nc(-c3ccc(NC(=O)Nc4cccnc4)cc3)nc2N2CC3CCC(C2)O3)C1	107 nM	1240 nM
CNC(=O)Nc1ccc(-c2nc3c(c(N4CC5CCC(C4)O5)n2)CCN(C(=O)COC)C3)cc1	–	830 nM
O=C(Nc1ccc(-c2nc3c(c(N4C5CCC4COC5)n2)CCNC3)cc1)Nc1cccnc1	1790 nM	> 10000 nM
CS(=O)(=O)N1Cc2nc(-c3ccc(NC(=O)Nc4cccnc4)cc3)nc(N3CC4CCC(C3)O4)c2C1	334 nM	> 10000 nM
CN(C)C1CCN(C(=O)c2ccc(NC(=O)Nc3ccc(-c4nc5c(c(N6C7CCC6COC7)n4)CCNC5)cc3)cc2)CC1	321 nM	3720 nM
CCCCCCC(=O)N1CCc2c(nc(-c3ccc(NC(=O)NC)cc3)nc2N2CC3CCC(C2)O3)C1	–	960 nM
CNC(=O)Nc1ccc(-c2nc3c(c(N4CC5CCC(C4)O5)n2)CCN(S(=O)(=O)c2ccc(F)cc2)C3)cc1	–	600 nM
O=C(Nc1ccc(-c2nc3c(c(N4C5CCC4COC5)n2)CNC3)cc1)Nc1cccnc1	25 nM	841 nM
CCCCNC(=O)N1CCc2c(nc(-c3ccc(NC(=O)NC)cc3)nc2N2CC3CCC(C2)O3)C1	–	375 nM
CCN1CCc2c(nc(-c3ccc(NC(=O)Nc4ccc(C(=O)NC(C)C)cc4)cc3)nc2N2C3CCC2COC3)C1	528 nM	–
CS(=O)(=O)N1Cc2nc(-c3ccc(NC(=O)Nc4cccnc4)cc3)nc(N3C4CCC3COC4)c2C1	732 nM	> 10000 nM
